In patent US20250170114A1, “METHODS OF TREATMENT USING T-TYPE CALCIUM CHANNEL MODULATORS” (Praxis Precision Medicines, Inc., priority 2022, published 2025):
“Also recorded” adds a separate entry of the source.

Key:
[1] = system: harmaline-induced tremor in male SD rats; experiment: Tremor assessment (tremor score 0-4) with harmaline in SD rats; type: in vivo, rat; details: harmaline 30 mg/kg, 10 mg/kg
Source text: Each of six groups of male SD rats were subjected to a tremor assessment, followed by three ADL-like measures including open field test, rotarod test, and wire grip test after receiving doses of either vehicle, Formula (I), or propranolol, followed by either saline or harmaline, as outlined below in Table 22 below. Twenty minutes after administration of harmaline or saline, the rats were subjected to a tremor assessment using the score criteria outlined in the table below.

[2] = system: rat spontaneous locomotor activity (sLMA); experiment: Rat spontaneous locomotor activity (sLMA) assay; type: in vivo; details: rats, 0-30 min; compound of Formula (I) 1 mg/kg p.o., propranolol 1 or 3 mg/kg i.p., alone or in combination
Method: […] Rat sLMA was measured from 0-30 min (0 minutes is 60 minutes after administration of the compound of Formula (I) and 20 minutes after administration of propranolol).

[3] = system: harmaline-induced motor impairment in male SD rats; experiment: Wire grip test with harmaline in SD rats; type: in vivo, rat; details: harmaline 30 mg/kg, 10 mg/kg, reference compound
Source text: (§1) Each of six groups of male SD rats were subjected to a tremor assessment, followed by three ADL-like measures including open field test, rotarod test, and wire grip test after receiving doses of either vehicle, Formula (I), or propranolol, followed by either saline or harmaline, as outlined below in Table 22 below.
Fifteen minutes after the rotarod test, rats were subjected to a wire grip test using an 80 cm long and 7 mm in diameter wire placed at a height of 50 cm.

[4] = system: harmaline-induced motor impairment in male SD rats; experiment: Rotarod test with harmaline in SD rats; type: in vivo, rat; details: harmaline 30 mg/kg, 10 mg/kg
Method: as §1
Fifteen minutes after the open field test, the rats were subjected to a rotarod test. The speed of the rotarod increased from 10 rpms to 60 rpms within the first five minutes of the test. FIG. 9 is a bar graph showing the mean of latency to fall in the rotarod test measured in rats that were administered 30 mg/kg harmaline and also administered 10 mg/kg propranolol or 1 mg/kg, 3 mg/kg or 10 mg/kg study drug.

[5] = Plasma and brain tissue concentrations in rats after harmaline testing; type: in vivo, rat; details: collected immediately after harmaline testing
Method: Plasma and brain tissue sample collection (at 90 min post dosing of study compound) was evaluated in […]. N=15 in each group. Plasma and brain tissue samples were collected immediately after harmaline testing. Plasma sample number: 5×15=75. Brain tissue sample number: 5×15=75.

[6] = system: harmaline-induced decrease in travelling distance in male SD rats; experiment: Open field test with harmaline in SD rats; type: in vivo, rat; details: harmaline 30 mg/kg, 10 mg/kg
Method: as §1
Fifteen minutes after the tremor assessment, the rats were subjected to an open field test. FIG. 8 is a bar graph showing the traveling distance in 0-5 minutes (mm) measured in rats that were administered 30 mg/kg harmaline and also administered 10 mg/kg propranolol or 1 mg/kg, 3 mg/kg or 10 mg/kg study drug.

CC(C)NCC(O)COc1cccc2ccccc12 (stereo not drawn) [propranolol, reference compound]
average tremor score vs vehicle and harmaline only [1]: significantly lower; also recorded: significantly inhibited | total sLMA (total distance travelled) [2]: do not significantly reduce | latency to fall in wire grip test [3]: significant reduction in motor impairment; also recorded: significantly attenuated | latency to fall in rotarod test vs vehicle and harmaline only [4]: failed to display any significant improvement; also recorded: no effect | plasma and brain concentrations [5]: consistent with those measured in previous studies | harmaline-induced decrease in spontaneous locomotor activity in the open field [6]: no effect
